Values quoted from earlier work in patent US20240009325A1 (PriZm, LLC, priority 2022, published 2024).
Entries after “also recorded” stand apart in the source; their conditions may differ.

Key:
MCT8 deficient children = conditions: cited from earlier work; for high blood / serum T3 / neuropsychomotor deficit / neurological symptoms: MCT8 deficient patients
animal models = conditions: mice not neurologically affected; cited from earlier work
mice deficient in MCT8 = conditions: cited from earlier work; for cell entry in absence of MCT8: Mct8 deficient mice
D1 = conditions: cited from earlier work

| SMILES | hypermetabolism and nutrition (MCT8 deficient children; 4 MCT8 deficient children, compassionate basis) | high blood / serum T3 (MCT8 deficient children) | neuropsychomotor deficit / neurological symptoms (MCT8 deficient children) | peripheral and central abnormalities (animal models) | suppressive effect on TSH (mice deficient in MCT8; MCT8 deficient vs normal mice) | cell entry in absence of MCT8 (mice deficient in MCT8) | T4 serum levels (MCT8 deficient children; clinical trial, Groeneweg et al. 2019) | D1 (D1) |
| --- | --- | --- | --- | --- | --- | --- | --- | --- |
| O=C(O)CCc1cc(I)c(Oc2ccc(O)cc2)c(I)c1 [DITPA, 3,5-diiodothyropropionic acid] | ameliorating | reduction and normalization; also recorded: reduced | not the neuropsychomotor deficit; also recorded: no evidence for improvement | able to restore some | equal suppressive effect | enter cells independent of MCT8 |  |  |
| Cc1cc(OCC(=O)O)cc(C)c1Cc1ccc(O)c(C(C)C)c1 [Sobetirome] |  |  |  | able to restore some |  |  |  |  |
| O=C(O)Cc1cc(I)c(Oc2cc(I)c(O)c(I)c2)c(I)c1 [TETRAC] |  |  |  | able to restore some |  |  |  |  |
| O=C(O)Cc1cc(I)c(Oc2ccc(O)c(I)c2)c(I)c1 [TRIAC, triiodothyroacetic acid] |  | reduced | no evidence for improvement | able to restore some |  | enter cells independent of MCT8 | significantly reduce | increases |
